Compound in assay [1]: CNCc1ccc(-c2[nH]c3cc(F)cc4c3c2CCNC4=O)cc1
As to the kind of experiment: surviving fraction relative to DMSO-only wells; higher = less growth inhibition. As to conditions: exposure time: 5 days. An outline of the steps: (§1)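 Surviving fraction was calculated by normalising CellTiter-Glo luminescence to the median of DMSO-only wells. Tumour cell lines in log phase were seeded in 384-well plates at 250–500 cells per well, and 24 hours later were exposed continuously for five days to inhibitors at 0.5, 1, 5, 10, 50, 100, 500 and 1000 nM.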

Compound in assay [2]: Cn1nnc2c(C(N)=O)ncn2c1=O [TEMOZOLOMIDE]
The assay is described as above. As to conditions: exposure time: 5 days. An outline of the steps: as §1

These results are taken from the supplement of paper PMC6045584.

± gives the standard deviation of the averaged measurements.

Take HCC70 BREAST: the surviving fraction in assay [1] (0.5 nM) came out at 1.07 ± 0.061; in assay [1] (1 nM), 1.12 ± 0.037; in assay [1] (5 nM) it was 1.16 ± 0.098; in assay [1] (10 nM), 1.1 ± 0.11; in assay [1] (50 nM), 1.12 ± 0.12; in assay [1] (100 nM), 1.11 ± 0.017. In addition, the surviving fraction was determined as 1.12 ± 0.11 in assay [1] (500 nM); 1.12 ± 0.052 in assay [1] (1000 nM); 0.984 ± 0.016 in assay [2] (0.5 nM); 1.04 ± 0.11 in assay [2] (1 nM); 1.07 ± 0.064 in assay [2] (5 nM); 1.08 ± 0.054 in assay [2] (10 nM). Moreover, the surviving fraction in assay [2] (50 nM) was 1.06 ± 0.079; in assay [2] (100 nM), 1.15 ± 0.095; in assay [2] (500 nM), 1.06 ± 0.09; in assay [2] (1000 nM), 1.09 ± 0.086.

In the case of G292 BONE, the surviving fraction in assay [1] (0.5 nM) is 0.998 ± 0.075; in assay [1] (1 nM), 0.981 ± 0.037; in assay [1] (5 nM) it was 1.05 ± 0.053; in assay [1] (10 nM), 0.975 ± 0.012; in assay [1] (50 nM), 0.9877 ± 0.0081; in assay [1] (100 nM), 0.932 ± 0.021. Also, the surviving fraction in assay [1] (500 nM) was 0.8 ± 0.044; in assay [1] (1000 nM), 0.775 ± 0.035; in assay [2] (0.5 nM) it was 1.01 ± 0.015; in assay [2] (1 nM), 0.9995 ± 0.0082; in assay [2] (5 nM), 0.981 ± 0.037; in assay [2] (10 nM) it was 1.05 ± 0.018. Moreover, the surviving fraction in assay [2] (50 nM) amounted to 1.04 ± 0.062; in assay [2] (100 nM) it was 1.02 ± 0.025; in assay [2] (500 nM) it was 0.986 ± 0.048; in assay [2] (1000 nM) it was 0.992 ± 0.029.

For the test system HCC38 BREAST, the surviving fraction was determined as 0.703 ± 0.16 in assay [1] (0.5 nM); 0.805 ± 0.24 in assay [1] (1 nM); 0.971 ± 0.31 in assay [1] (5 nM); 0.705 ± 0.14 in assay [1] (10 nM); 0.528 ± 0.1 in assay [1] (50 nM); 0.607 ± 0.047 in assay [1] (100 nM). Also, the surviving fraction in assay [1] (500 nM) amounted to 0.492 ± 0.22; in assay [1] (1000 nM), 0.45 ± 0.035; in assay [2] (0.5 nM) it was 1.34 ± 0.19; in assay [2] (1 nM), 1.25 ± 0.04; in assay [2] (5 nM), 1.31 ± 0.13; in assay [2] (10 nM), 1.39 ± 0.032. The surviving fraction in assay [2] (50 nM) was found to be 1.33 ± 0.11; in assay [2] (100 nM), 1.32 ± 0.06; in assay [2] (500 nM), 1.3 ± 0.26; in assay [2] (1000 nM) it was 1.33 ± 0.11.

In the case of HMT3552 BREAST, the surviving fraction stood at 0.99 ± 0.063 in assay [1] (0.5 nM); 0.968 ± 0.043 in assay [1] (1 nM); 0.95 ± 0.031 in assay [1] (5 nM); 1 ± 0.0095 in assay [1] (10 nM); 0.817 ± 0.037 in assay [1] (50 nM); 0.84 ± 0.022 in assay [1] (100 nM). Moreover, the surviving fraction in assay [1] (500 nM) worked out at 0.78 ± 0.042; in assay [1] (1000 nM), 0.723 ± 0.079; in assay [2] (0.5 nM) it was 1.09 ± 0.094; in assay [2] (1 nM) it was 1.07 ± 0.015; in assay [2] (5 nM) it was 1.05 ± 0.038; in assay [2] (10 nM) it was 1.09 ± 0.071. For the same test system, the surviving fraction stood at 1.15 ± 0.06 in assay [2] (50 nM), 1.19 ± 0.063 in assay [2] (100 nM), 1.09 ± 0.039 in assay [2] (500 nM) and 1.15 ± 0.022 in assay [2] (1000 nM).

On to CCK81 LARGE INTESTINE, for which the surviving fraction in assay [1] (0.5 nM) is 0.829 ± 0.06; in assay [1] (1 nM) it was 0.766 ± 0.13; in assay [1] (5 nM), 0.861 ± 0.24; in assay [1] (10 nM), 0.719 ± 0.12; in assay [1] (50 nM) it was 0.789 ± 0.041; in assay [1] (100 nM) it was 0.803 ± 0.058. For the same test system, the surviving fraction came out at 0.914 ± 0.053 in assay [1] (500 nM); 0.783 ± 0.023 in assay [1] (1000 nM); 0.766 ± 0.075 in assay [2] (0.5 nM); 0.729 ± 0.06 in assay [2] (1 nM); 0.744 ± 0.041 in assay [2] (5 nM); 0.771 ± 0.024 in assay [2] (10 nM). The surviving fraction in assay [2] (50 nM) was determined as 0.775 ± 0.083; in assay [2] (100 nM), 0.745 ± 0.048; in assay [2] (500 nM), 0.789 ± 0.033; in assay [2] (1000 nM), 0.817 ± 0.055.

For HS578T BREAST, the surviving fraction in assay [1] (0.5 nM) was 0.959 ± 0.13; in assay [1] (1 nM) it was 0.875 ± 0.042; in assay [1] (5 nM), 0.912 ± 0.11; in assay [1] (10 nM) it was 0.927 ± 0.17; in assay [1] (50 nM) it was 0.892 ± 0.062; in assay [1] (100 nM), 0.937 ± 0.067. Also, the surviving fraction in assay [1] (500 nM) was 0.763 ± 0.059; in assay [1] (1000 nM), 0.801 ± 0.13; in assay [2] (0.5 nM) it was 0.927 ± 0.11; in assay [2] (1 nM) it was 0.886 ± 0.094; in assay [2] (5 nM), 0.91 ± 0.15; in assay [2] (10 nM) it was 0.913 ± 0.054. Further, the surviving fraction came out at 1.05 ± 0.1 in assay [2] (50 nM), 0.916 ± 0.074 in assay [2] (100 nM), 0.936 ± 0.12 in assay [2] (500 nM) and 0.942 ± 0.12 in assay [2] (1000 nM).

Consider HMLE3 BREAST, for which the surviving fraction in assay [1] (0.5 nM) is 1.13 ± 0.039; in assay [1] (1 nM), 1 ± 0.042; in assay [1] (5 nM), 1.11 ± 0.051; in assay [1] (10 nM), 1.07 ± 0.051; in assay [1] (50 nM), 0.986 ± 0.17; in assay [1] (100 nM), 1.03 ± 0.082. The surviving fraction in assay [1] (500 nM) was determined as 0.856 ± 0.14; in assay [1] (1000 nM), 0.879 ± 0.056; in assay [2] (0.5 nM), 1.01 ± 0.053; in assay [2] (1 nM) it was 1.12 ± 0.085; in assay [2] (5 nM), 1.01 ± 0.11; in assay [2] (10 nM) it was 1.04 ± 0.021. In addition, the surviving fraction was determined as 1.03 ± 0.039 in assay [2] (50 nM), 1.03 ± 0.026 in assay [2] (100 nM), 1.03 ± 0.044 in assay [2] (500 nM) and 1.15 ± 0.079 in assay [2] (1000 nM).
